The values below are quoted from earlier work in patent publication US20160017431A1, “Methods for Predicting EGFR Tyrosine Kinase Inhibitor Efficacy” (Driver Group, priority 2014, published 2016).

The test system of the data set is EGFR mutants carrying the T790M mutation. The settings on record: statement 'has been shown', no data given.

For the molecule `COc1cc(N2CCC(N(C)C)CC2)ccc1Nc1ncc(Cl)c(Nc2ccccc2P(C)(C)=O)n1` [AP26113], the “inhibition of the tyrosine kinase activity of EGFR mutants carrying the T790M mutation” value is “able to inhibit the tyrosine kinase activity”.

As to `COc1cc2ncnc(Nc3ccc(F)c(Cl)c3)c2cc1NC(=O)/C=C/CN1CCCCC1` [Dacomitinib], the “inhibition of the tyrosine kinase activity of EGFR mutants carrying the T790M mutation” value is “able to inhibit the tyrosine kinase activity”.
